Data taken from the kinase profiling compilation of Christmann-Franck et al. (2016).

Molecular target: CHEK1 (human) (UniProt O14757)
Test: radiometric filter-binding kinase assay, Kinase HotSpot
Conditions: compound 0.5 µM; ATP 10 µM

Going from Cc1ccc(NC(=O)c2ccc(CN3CCN(C)CC3)cc2)cc1Nc1nc(-c2cccnc2)cs1 to CSc1nc(-c2ccc(F)cc2)c(-c2ccnc(NC(C)c3ccccc3)c2)[nH]1 (stereo not drawn), the residual activity falls from 110% to 101%.

In the case of CC(C)[C@H](CO)Nc1nc(Nc2cccc(Cl)c2)c2ncn(C(C)C)c2n1, the residual activity is reported as 97.9%.

Molecular target: DYRK1A (human) (UniProt Q13627)
Test: as above
Conditions: compound 0.5 µM; ATP 10 µM

Compared with Cc1ccc(NC(=O)c2ccc(CN3CCN(C)CC3)cc2)cc1Nc1nc(-c2cccnc2)cs1, CSc1nc(-c2ccc(F)cc2)c(-c2ccnc(NC(C)c3ccccc3)c2)[nH]1 (stereo not drawn) is lower in residual activity: 106% for the first, 97.9% for the second.

Molecule CC(C)[C@H](CO)Nc1nc(Nc2cccc(Cl)c2)c2ncn(C(C)C)c2n1 has a residual activity of 65.4%.

Molecular target: EPHB1 (human) (UniProt P54762)
Test: as above
Conditions: compound 0.5 µM; ATP 10 µM

Chain of EPHB1 (human) (P54762 whole entry, looked up): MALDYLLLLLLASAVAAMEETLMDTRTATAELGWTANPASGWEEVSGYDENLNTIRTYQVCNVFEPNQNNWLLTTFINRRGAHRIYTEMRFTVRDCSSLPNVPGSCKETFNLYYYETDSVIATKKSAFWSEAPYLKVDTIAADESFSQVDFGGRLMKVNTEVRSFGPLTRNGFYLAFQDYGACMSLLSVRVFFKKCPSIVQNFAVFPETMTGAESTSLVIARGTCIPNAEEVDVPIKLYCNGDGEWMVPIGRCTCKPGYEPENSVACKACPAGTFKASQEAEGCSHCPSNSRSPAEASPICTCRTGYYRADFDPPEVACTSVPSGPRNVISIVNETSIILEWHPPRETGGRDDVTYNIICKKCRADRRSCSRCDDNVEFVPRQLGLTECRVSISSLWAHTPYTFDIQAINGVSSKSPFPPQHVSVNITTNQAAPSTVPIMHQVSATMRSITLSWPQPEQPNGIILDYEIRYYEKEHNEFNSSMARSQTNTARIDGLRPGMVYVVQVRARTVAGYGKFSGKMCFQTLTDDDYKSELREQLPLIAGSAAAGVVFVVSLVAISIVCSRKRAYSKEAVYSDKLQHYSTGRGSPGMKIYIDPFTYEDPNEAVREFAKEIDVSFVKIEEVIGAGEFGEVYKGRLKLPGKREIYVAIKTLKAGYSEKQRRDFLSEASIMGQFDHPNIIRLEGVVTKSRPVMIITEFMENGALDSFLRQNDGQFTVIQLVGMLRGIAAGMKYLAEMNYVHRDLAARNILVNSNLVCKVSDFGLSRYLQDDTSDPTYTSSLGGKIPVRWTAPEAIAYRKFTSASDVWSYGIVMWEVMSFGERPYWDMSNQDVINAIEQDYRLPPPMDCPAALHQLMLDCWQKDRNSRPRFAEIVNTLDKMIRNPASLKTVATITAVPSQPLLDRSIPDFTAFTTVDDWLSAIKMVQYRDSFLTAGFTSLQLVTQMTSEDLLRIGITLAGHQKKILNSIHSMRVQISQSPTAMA

First: Cc1ccc(NC(=O)c2ccc(CN3CCN(C)CC3)cc2)cc1Nc1nc(-c2cccnc2)cs1
Second: CSc1nc(-c2ccc(F)cc2)c(-c2ccnc(NC(C)c3ccccc3)c2)[nH]1 (stereo not drawn)
The residual activity of the first is lower: 94.9% for the first, 96.4% for the second.

CC(C)[C@H](CO)Nc1nc(Nc2cccc(Cl)c2)c2ncn(C(C)C)c2n1 showed a residual activity of 83.5%.

Molecular target: BRAF (human) (UniProt P15056)
Test: as above
Conditions: compound 0.5 µM; ATP 10 µM

Going from Cc1ccc(NC(=O)c2ccc(CN3CCN(C)CC3)cc2)cc1Nc1nc(-c2cccnc2)cs1 to CSc1nc(-c2ccc(F)cc2)c(-c2ccnc(NC(C)c3ccccc3)c2)[nH]1 (stereo not drawn), the residual activity falls from 92.3% to 91.8%.

CC(C)[C@H](CO)Nc1nc(Nc2cccc(Cl)c2)c2ncn(C(C)C)c2n1 was tested, and the residual activity was 92.7%.

Molecular target: MKNK2 (human) (UniProt Q9HBH9)
Test: as above
Conditions: compound 0.5 µM; ATP 10 µM

First: Cc1ccc(NC(=O)c2ccc(CN3CCN(C)CC3)cc2)cc1Nc1nc(-c2cccnc2)cs1
Second: CSc1nc(-c2ccc(F)cc2)c(-c2ccnc(NC(C)c3ccccc3)c2)[nH]1 (stereo not drawn)
The residual activity of the first is lower: 103% for the first, 105% for the second.

CC(C)[C@H](CO)Nc1nc(Nc2cccc(Cl)c2)c2ncn(C(C)C)c2n1 showed a residual activity of 87.5%.

Molecular target: EPHA6 (human) (UniProt Q9UF33)
Test: as above
Conditions: compound 0.5 µM; ATP 10 µM

First: Cc1ccc(NC(=O)c2ccc(CN3CCN(C)CC3)cc2)cc1Nc1nc(-c2cccnc2)cs1
Second: CSc1nc(-c2ccc(F)cc2)c(-c2ccnc(NC(C)c3ccccc3)c2)[nH]1 (stereo not drawn)
The residual activity of the first is higher: 98.2% for the first, 75.8% for the second.

Work on CC(C)[C@H](CO)Nc1nc(Nc2cccc(Cl)c2)c2ncn(C(C)C)c2n1 yielded a residual activity of 93.8%.

Molecular target: NUAK2 (human) (UniProt Q9H093)
Test: as above
Conditions: compound 0.5 µM; ATP 10 µM

Compared with Cc1ccc(NC(=O)c2ccc(CN3CCN(C)CC3)cc2)cc1Nc1nc(-c2cccnc2)cs1, CSc1nc(-c2ccc(F)cc2)c(-c2ccnc(NC(C)c3ccccc3)c2)[nH]1 (stereo not drawn) is lower in residual activity: 98.4% for the first, 86.5% for the second.

For CC(C)[C@H](CO)Nc1nc(Nc2cccc(Cl)c2)c2ncn(C(C)C)c2n1, the residual activity was 134%.

Molecular target: CLK3 (human) (UniProt P49761)
Test: as above
Conditions: compound 0.5 µM; ATP 10 µM

Compared with Cc1ccc(NC(=O)c2ccc(CN3CCN(C)CC3)cc2)cc1Nc1nc(-c2cccnc2)cs1, CSc1nc(-c2ccc(F)cc2)c(-c2ccnc(NC(C)c3ccccc3)c2)[nH]1 (stereo not drawn) is lower in residual activity: 93.6% for the first, 85.4% for the second.

With CC(C)[C@H](CO)Nc1nc(Nc2cccc(Cl)c2)c2ncn(C(C)C)c2n1 the residual activity was 89.7%.

Molecular target: PRKCG (human) (UniProt P05129)
Test: as above
Conditions: compound 0.5 µM; ATP 10 µM

Going from Cc1ccc(NC(=O)c2ccc(CN3CCN(C)CC3)cc2)cc1Nc1nc(-c2cccnc2)cs1 to CSc1nc(-c2ccc(F)cc2)c(-c2ccnc(NC(C)c3ccccc3)c2)[nH]1 (stereo not drawn), the residual activity rises from 95.8% to 101%.

CC(C)[C@H](CO)Nc1nc(Nc2cccc(Cl)c2)c2ncn(C(C)C)c2n1 gave a residual activity of 98.2%.

Molecular target: EPHA4 (human) (UniProt P54764)
Test: as above
Conditions: compound 0.5 µM; ATP 10 µM

Chain of EPHA4 (human) (P54764 whole entry, looked up): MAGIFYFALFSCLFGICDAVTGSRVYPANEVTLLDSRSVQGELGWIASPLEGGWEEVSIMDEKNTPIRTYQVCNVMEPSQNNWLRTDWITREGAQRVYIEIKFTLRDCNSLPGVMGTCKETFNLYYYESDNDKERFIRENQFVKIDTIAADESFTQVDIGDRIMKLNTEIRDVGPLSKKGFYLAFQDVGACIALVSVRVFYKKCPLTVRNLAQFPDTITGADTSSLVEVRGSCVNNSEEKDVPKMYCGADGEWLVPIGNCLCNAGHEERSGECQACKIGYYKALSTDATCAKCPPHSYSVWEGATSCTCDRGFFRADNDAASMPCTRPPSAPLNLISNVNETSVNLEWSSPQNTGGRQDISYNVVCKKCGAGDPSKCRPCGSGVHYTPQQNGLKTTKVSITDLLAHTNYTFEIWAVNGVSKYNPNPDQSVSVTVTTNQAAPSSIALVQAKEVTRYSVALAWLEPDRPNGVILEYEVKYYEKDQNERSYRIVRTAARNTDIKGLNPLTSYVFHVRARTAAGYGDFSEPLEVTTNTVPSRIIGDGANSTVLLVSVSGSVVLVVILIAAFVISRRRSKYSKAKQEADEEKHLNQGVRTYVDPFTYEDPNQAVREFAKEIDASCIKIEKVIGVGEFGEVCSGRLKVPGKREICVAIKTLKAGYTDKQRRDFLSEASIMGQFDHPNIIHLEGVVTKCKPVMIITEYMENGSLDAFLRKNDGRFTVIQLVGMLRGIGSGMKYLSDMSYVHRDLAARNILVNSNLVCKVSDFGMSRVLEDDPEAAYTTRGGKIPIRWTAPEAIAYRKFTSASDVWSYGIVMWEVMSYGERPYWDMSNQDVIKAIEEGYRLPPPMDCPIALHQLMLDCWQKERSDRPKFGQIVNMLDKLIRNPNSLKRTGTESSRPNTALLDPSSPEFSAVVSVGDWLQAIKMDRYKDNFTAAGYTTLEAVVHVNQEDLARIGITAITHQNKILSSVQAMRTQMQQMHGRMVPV

Compared with Cc1ccc(NC(=O)c2ccc(CN3CCN(C)CC3)cc2)cc1Nc1nc(-c2cccnc2)cs1, CSc1nc(-c2ccc(F)cc2)c(-c2ccnc(NC(C)c3ccccc3)c2)[nH]1 (stereo not drawn) is lower in residual activity: 105% for the first, 93.1% for the second.

CC(C)[C@H](CO)Nc1nc(Nc2cccc(Cl)c2)c2ncn(C(C)C)c2n1 was tested, and the residual activity was 102%.

Molecular target: PRKD2 (human) (UniProt Q9BZL6)
Test: as above
Conditions: compound 0.5 µM; ATP 10 µM

Chain of PRKD2 (human) (Q9BZL6 whole entry, looked up): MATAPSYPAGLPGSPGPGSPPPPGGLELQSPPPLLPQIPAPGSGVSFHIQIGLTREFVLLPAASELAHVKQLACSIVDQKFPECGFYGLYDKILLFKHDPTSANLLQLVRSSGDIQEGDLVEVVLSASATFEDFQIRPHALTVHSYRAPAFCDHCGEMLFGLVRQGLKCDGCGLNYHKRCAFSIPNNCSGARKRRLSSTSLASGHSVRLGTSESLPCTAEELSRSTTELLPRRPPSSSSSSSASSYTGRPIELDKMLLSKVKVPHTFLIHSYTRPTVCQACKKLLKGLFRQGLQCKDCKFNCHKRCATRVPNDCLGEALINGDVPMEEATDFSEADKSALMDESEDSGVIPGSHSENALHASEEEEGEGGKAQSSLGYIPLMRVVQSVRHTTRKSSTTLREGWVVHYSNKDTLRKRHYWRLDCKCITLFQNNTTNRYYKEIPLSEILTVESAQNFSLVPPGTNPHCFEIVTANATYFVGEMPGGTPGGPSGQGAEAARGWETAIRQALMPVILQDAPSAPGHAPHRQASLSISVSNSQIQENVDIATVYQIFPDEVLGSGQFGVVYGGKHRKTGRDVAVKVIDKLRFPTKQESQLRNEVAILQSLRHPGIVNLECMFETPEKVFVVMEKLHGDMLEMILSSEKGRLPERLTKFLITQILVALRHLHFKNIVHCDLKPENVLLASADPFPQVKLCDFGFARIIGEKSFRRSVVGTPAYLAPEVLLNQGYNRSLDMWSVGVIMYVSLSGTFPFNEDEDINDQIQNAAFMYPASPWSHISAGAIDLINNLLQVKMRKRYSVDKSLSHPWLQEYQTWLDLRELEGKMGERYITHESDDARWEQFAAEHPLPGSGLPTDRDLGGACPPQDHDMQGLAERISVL

Compared with Cc1ccc(NC(=O)c2ccc(CN3CCN(C)CC3)cc2)cc1Nc1nc(-c2cccnc2)cs1, CSc1nc(-c2ccc(F)cc2)c(-c2ccnc(NC(C)c3ccccc3)c2)[nH]1 (stereo not drawn) is lower in residual activity: 98.2% for the first, 86.4% for the second.

In the case of CC(C)[C@H](CO)Nc1nc(Nc2cccc(Cl)c2)c2ncn(C(C)C)c2n1, the residual activity is reported as 99.7%.

Molecular target: TLK2 (human) (UniProt Q86UE8)
Test: as above
Conditions: compound 0.5 µM; ATP 10 µM

Compared with Cc1ccc(NC(=O)c2ccc(CN3CCN(C)CC3)cc2)cc1Nc1nc(-c2cccnc2)cs1, CSc1nc(-c2ccc(F)cc2)c(-c2ccnc(NC(C)c3ccccc3)c2)[nH]1 (stereo not drawn) is higher in residual activity: 94.5% for the first, 106% for the second.

CC(C)[C@H](CO)Nc1nc(Nc2cccc(Cl)c2)c2ncn(C(C)C)c2n1 was tested, and the residual activity was 94.7%.

Molecular target: TBK1 (human) (UniProt Q9UHD2)
Test: as above
Conditions: compound 0.5 µM; ATP 10 µM

First: Cc1ccc(NC(=O)c2ccc(CN3CCN(C)CC3)cc2)cc1Nc1nc(-c2cccnc2)cs1
Second: CSc1nc(-c2ccc(F)cc2)c(-c2ccnc(NC(C)c3ccccc3)c2)[nH]1 (stereo not drawn)
The residual activity of the first is higher: 97% for the first, 92% for the second.

CC(C)[C@H](CO)Nc1nc(Nc2cccc(Cl)c2)c2ncn(C(C)C)c2n1 gave a residual activity of 93%.

Molecular target: PRKACG (human) (UniProt P22612)
Test: as above
Conditions: compound 0.5 µM; ATP 10 µM

Chain of PRKACG (human) (P22612 whole entry, looked up): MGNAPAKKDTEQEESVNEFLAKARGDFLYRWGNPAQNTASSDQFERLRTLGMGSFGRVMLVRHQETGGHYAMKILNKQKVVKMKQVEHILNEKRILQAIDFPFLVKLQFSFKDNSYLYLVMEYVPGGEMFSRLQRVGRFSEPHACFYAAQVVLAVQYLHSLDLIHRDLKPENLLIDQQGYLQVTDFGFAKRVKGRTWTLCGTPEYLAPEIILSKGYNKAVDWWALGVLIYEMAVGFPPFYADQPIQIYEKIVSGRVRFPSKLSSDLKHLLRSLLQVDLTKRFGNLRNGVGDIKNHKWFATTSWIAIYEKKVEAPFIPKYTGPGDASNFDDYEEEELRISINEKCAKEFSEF

Compared with Cc1ccc(NC(=O)c2ccc(CN3CCN(C)CC3)cc2)cc1Nc1nc(-c2cccnc2)cs1, CSc1nc(-c2ccc(F)cc2)c(-c2ccnc(NC(C)c3ccccc3)c2)[nH]1 (stereo not drawn) is higher in residual activity: 110% for the first, 115% for the second.

Work on CC(C)[C@H](CO)Nc1nc(Nc2cccc(Cl)c2)c2ncn(C(C)C)c2n1 yielded a residual activity of 113%.

Molecular target: NEK11 (human) (UniProt Q8NG66)
Test: as above
Conditions: compound 0.5 µM; ATP 10 µM

Chain of NEK11 (human) (Q8NG66 whole entry, looked up): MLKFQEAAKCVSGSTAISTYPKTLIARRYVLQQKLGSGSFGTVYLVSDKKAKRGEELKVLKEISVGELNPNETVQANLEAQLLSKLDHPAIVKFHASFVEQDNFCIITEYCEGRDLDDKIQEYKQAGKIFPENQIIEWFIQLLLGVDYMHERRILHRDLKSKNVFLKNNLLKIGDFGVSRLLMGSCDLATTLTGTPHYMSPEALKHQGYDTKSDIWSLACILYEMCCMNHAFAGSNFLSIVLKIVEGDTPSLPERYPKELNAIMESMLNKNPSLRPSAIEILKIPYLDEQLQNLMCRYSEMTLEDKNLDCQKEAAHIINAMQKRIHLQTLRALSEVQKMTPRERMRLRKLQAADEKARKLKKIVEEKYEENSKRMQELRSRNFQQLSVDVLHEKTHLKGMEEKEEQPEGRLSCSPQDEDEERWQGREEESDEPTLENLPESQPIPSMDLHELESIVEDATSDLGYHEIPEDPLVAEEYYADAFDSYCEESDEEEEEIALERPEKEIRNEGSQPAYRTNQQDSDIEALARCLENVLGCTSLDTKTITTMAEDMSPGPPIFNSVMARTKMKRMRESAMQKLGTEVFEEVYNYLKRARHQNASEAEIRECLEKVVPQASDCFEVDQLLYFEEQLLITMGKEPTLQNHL

First: Cc1ccc(NC(=O)c2ccc(CN3CCN(C)CC3)cc2)cc1Nc1nc(-c2cccnc2)cs1
Second: CSc1nc(-c2ccc(F)cc2)c(-c2ccnc(NC(C)c3ccccc3)c2)[nH]1 (stereo not drawn)
The residual activity of the first is lower: 95.1% for the first, 108% for the second.

In the case of CC(C)[C@H](CO)Nc1nc(Nc2cccc(Cl)c2)c2ncn(C(C)C)c2n1, the residual activity is reported as 67.1%.

Molecular target: PRKCB2 (human) (UniProt P05771)
Test: as above
Conditions: compound 0.5 µM; ATP 10 µM

Going from Cc1ccc(NC(=O)c2ccc(CN3CCN(C)CC3)cc2)cc1Nc1nc(-c2cccnc2)cs1 to CSc1nc(-c2ccc(F)cc2)c(-c2ccnc(NC(C)c3ccccc3)c2)[nH]1 (stereo not drawn), the residual activity rises from 95.9% to 101%.

In the case of CC(C)[C@H](CO)Nc1nc(Nc2cccc(Cl)c2)c2ncn(C(C)C)c2n1, the residual activity is reported as 88.6%.

Molecular target: STK38 (human) (UniProt Q15208)
Test: as above
Conditions: compound 0.5 µM; ATP 10 µM

Compared with Cc1ccc(NC(=O)c2ccc(CN3CCN(C)CC3)cc2)cc1Nc1nc(-c2cccnc2)cs1, CSc1nc(-c2ccc(F)cc2)c(-c2ccnc(NC(C)c3ccccc3)c2)[nH]1 (stereo not drawn) is higher in residual activity: 95.9% for the first, 104% for the second.

For CC(C)[C@H](CO)Nc1nc(Nc2cccc(Cl)c2)c2ncn(C(C)C)c2n1, the residual activity was 90.5%.

Molecular target: EGFR (human) (UniProt P00533)
Test: as above
Conditions: compound 0.5 µM; ATP 10 µM

Compared with Cc1ccc(NC(=O)c2ccc(CN3CCN(C)CC3)cc2)cc1Nc1nc(-c2cccnc2)cs1, CSc1nc(-c2ccc(F)cc2)c(-c2ccnc(NC(C)c3ccccc3)c2)[nH]1 (stereo not drawn) is lower in residual activity: 99.6% for the first, 87.1% for the second.

Work on CC(C)[C@H](CO)Nc1nc(Nc2cccc(Cl)c2)c2ncn(C(C)C)c2n1 yielded a residual activity of 94.2%.

Molecular target: CSK (human) (UniProt P41240)
Test: as above
Conditions: compound 0.5 µM; ATP 10 µM

Compared with Cc1ccc(NC(=O)c2ccc(CN3CCN(C)CC3)cc2)cc1Nc1nc(-c2cccnc2)cs1, CSc1nc(-c2ccc(F)cc2)c(-c2ccnc(NC(C)c3ccccc3)c2)[nH]1 (stereo not drawn) is lower in residual activity: 104% for the first, 82.4% for the second.

In the case of CC(C)[C@H](CO)Nc1nc(Nc2cccc(Cl)c2)c2ncn(C(C)C)c2n1, the residual activity is reported as 98.1%.

Molecular target: CDK9 CCNT1 (human) (UniProt P50750+O60563)
Test: as above
Conditions: compound 0.5 µM; ATP 10 µM

Compared with Cc1ccc(NC(=O)c2ccc(CN3CCN(C)CC3)cc2)cc1Nc1nc(-c2cccnc2)cs1, CSc1nc(-c2ccc(F)cc2)c(-c2ccnc(NC(C)c3ccccc3)c2)[nH]1 (stereo not drawn) is lower in residual activity: 99.2% for the first, 99.1% for the second.

CC(C)[C@H](CO)Nc1nc(Nc2cccc(Cl)c2)c2ncn(C(C)C)c2n1 gave a residual activity of 65%.

Molecular target: PRKD3 (human) (UniProt O94806)
Test: as above
Conditions: compound 0.5 µM; ATP 10 µM

Chain of PRKD3 (human) (O94806 whole entry, looked up): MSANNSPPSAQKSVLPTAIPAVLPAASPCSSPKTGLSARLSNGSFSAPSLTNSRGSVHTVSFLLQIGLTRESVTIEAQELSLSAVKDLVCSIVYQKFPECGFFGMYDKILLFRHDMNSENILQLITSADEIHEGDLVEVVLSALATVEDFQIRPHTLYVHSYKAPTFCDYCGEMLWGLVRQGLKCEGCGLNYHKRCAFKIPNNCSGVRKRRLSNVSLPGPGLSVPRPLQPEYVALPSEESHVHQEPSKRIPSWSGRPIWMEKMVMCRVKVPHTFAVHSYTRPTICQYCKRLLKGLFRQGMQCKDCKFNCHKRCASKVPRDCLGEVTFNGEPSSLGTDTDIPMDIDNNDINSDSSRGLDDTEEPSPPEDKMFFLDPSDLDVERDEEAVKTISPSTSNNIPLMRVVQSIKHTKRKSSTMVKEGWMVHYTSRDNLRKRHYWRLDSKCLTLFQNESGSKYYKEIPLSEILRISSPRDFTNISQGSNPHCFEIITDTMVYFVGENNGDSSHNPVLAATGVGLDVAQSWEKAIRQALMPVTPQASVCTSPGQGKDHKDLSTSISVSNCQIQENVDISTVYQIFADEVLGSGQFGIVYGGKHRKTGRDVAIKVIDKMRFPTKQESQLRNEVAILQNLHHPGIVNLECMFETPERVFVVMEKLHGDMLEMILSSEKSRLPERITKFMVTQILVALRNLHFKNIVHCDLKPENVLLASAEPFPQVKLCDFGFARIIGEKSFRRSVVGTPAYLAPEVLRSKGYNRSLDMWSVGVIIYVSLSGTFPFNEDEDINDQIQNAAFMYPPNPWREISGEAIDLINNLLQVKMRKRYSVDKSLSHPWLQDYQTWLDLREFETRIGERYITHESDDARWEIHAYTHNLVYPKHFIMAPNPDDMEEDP

First: Cc1ccc(NC(=O)c2ccc(CN3CCN(C)CC3)cc2)cc1Nc1nc(-c2cccnc2)cs1
Second: CSc1nc(-c2ccc(F)cc2)c(-c2ccnc(NC(C)c3ccccc3)c2)[nH]1 (stereo not drawn)
The residual activity of the first is higher: 92.7% for the first, 82% for the second.

Molecule CC(C)[C@H](CO)Nc1nc(Nc2cccc(Cl)c2)c2ncn(C(C)C)c2n1 has a residual activity of 95.5%.
